pEC50, pIC50: −log10 of the molar value. Where two headings read alike, the source gives them in different places.
Key:
[1] = target: KRAS G13D binding to BRAF RBD (Homo sapiens (Human), UniProt P01116+P62937, G13D); experiment: Ras-Raf disruption/FRET/MOA assay, KRAS G13D; assay type: biochemical
Excerpt: (§1) Note—The following protocol describes a procedure for monitoring disruption of K-Ras G12C(GMP-PNP) binding to BRAF^RBD by a compound of the invention. This protocol may also be executed substituting other Ras proteins or nucleotides.
(§2) The purpose of this biochemical assay was to measure the ability of test compounds to facilitate ternary complex formation between a nucleotide-loaded K-Ras isoform and Cyclophilin A; the resulting ternary complex disrupts binding to a BRAF^RBD construct, inhibiting K-Ras signaling through a RAF effector. Data is reported as IC50 values.
(§3) Compound was present in plate wells as a 10-point 3-fold dilution series starting at a final concentration of 30 μM. After incubation at 25° C. for 3 hours, a mixture of Anti-His Eu—W1024 and anti-GST allophycocyanin was then added to assay sample wells at final concentrations of 10 nM and 50 nM, respectively, and the reaction incubated for an additional 1.5 hours. […] Compounds that facilitate disruption of a K-Ras: RAF complex were identified as those eliciting a decrease in the TR-FRET ratio relative to DMSO control wells.

[2] = target: NRAS G12C binding to BRAF RBD (Homo sapiens (Human), UniProt P01111+P62937, G12C); experiment: Ras-Raf disruption/FRET/MOA assay, NRAS G12C; assay type: biochemical
Chain of NRAS G12C binding to BRAF RBD (P01111 whole entry G12C): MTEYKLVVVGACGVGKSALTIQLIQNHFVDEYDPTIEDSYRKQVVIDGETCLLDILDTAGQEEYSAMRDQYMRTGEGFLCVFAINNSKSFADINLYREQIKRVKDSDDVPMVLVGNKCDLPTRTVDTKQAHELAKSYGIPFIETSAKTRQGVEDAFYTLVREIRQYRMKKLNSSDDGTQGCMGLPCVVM
Chain of NRAS G12C binding to BRAF RBD (P62937 whole entry): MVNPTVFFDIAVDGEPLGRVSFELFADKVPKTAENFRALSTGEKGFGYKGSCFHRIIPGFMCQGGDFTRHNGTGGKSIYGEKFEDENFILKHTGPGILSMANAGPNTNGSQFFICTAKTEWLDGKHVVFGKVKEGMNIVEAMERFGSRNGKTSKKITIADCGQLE
Excerpt: as §1, §2, §3

AsPC-1 (K-Ras G12D) [3] = experiment: Potency assay: pERK; assay type: cell-based, human; conditions: Homo sapiens
Summary of the method: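 pERK decrease measured after 4 h compound treatment at 37 °C (10 three-fold dilutions, duplicate wells), by either fixed-cell In-Cell Western with DRAQ5 counterstain or AlphaLISA on lysates. Signal fitted against log concentration with a four-parameter model to give IC50.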

NCI-H358 (K-Ras G12C) = experiment: CellTiter-Glo cell viability assay, H358; assay type: cell-based, human; conditions: Homo sapiens, NCI-H358, 120 h
Summary of the method: (§4)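 Viability of K-Ras mutant lines is measured by ATP luminescence after five days of compound treatment. Percent of DMSO control is calculated and dose-response data are fitted with a four-parameter logistic equation.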

AsPC-1 (K-Ras G12D) [4] = experiment: CellTiter-Glo cell viability assay, AsPC-1; assay type: cell-based, human; conditions: Homo sapiens, ASPC1, 120 h, read-out: AsPC-1 Cell Viability IC50
Summary of the method: as §4

KRAS G13D = KRAS G13D (Homo sapiens (Human), UniProt P01116+P62937, G13D); experiment: Ras-Raf disruption/FRET/MOA assay, KRAS G13D; assay type: biochemical
Chain of KRAS G13D (P01116 other isoform, or with tags, fused parts or gaps G13D): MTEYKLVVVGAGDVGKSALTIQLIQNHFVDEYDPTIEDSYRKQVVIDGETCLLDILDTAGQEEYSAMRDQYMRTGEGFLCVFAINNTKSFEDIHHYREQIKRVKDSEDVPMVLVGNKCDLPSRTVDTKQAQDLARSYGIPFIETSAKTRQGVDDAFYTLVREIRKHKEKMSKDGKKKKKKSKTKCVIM
Chain of KRAS G13D (P62937 whole entry): as the sequence (P62937 whole entry) above
Summary of the method: (§5)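 TR-FRET of nucleotide-loaded (GMP-PNP) His6-Ras (12.5 nM) binding to GST-BRAF RBD (50 nM) with Cyclophilin A (25 μM) in HEPES pH 7.3 buffer; 10-point 3-fold compound series from 30 μM, 3 h at 25 °C, then anti-His Eu/anti-GST APC 1.5 h. IC50 from decreased FRET ratio vs DMSO.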

KRAS G12S = KRAS G12S (Homo sapiens (Human), UniProt P01116+P62937, G12S); experiment: Ras-Raf disruption/FRET/MOA assay, KRAS G12S; assay type: biochemical
Chain of KRAS G12S (P01116 other isoform, or with tags, fused parts or gaps G12S): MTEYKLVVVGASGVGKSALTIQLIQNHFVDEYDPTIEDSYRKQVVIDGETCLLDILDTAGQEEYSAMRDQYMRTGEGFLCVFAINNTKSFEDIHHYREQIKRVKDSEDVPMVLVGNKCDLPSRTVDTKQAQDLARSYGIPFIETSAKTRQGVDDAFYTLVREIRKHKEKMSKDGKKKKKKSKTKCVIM
Chain of KRAS G12S (P62937 whole entry): as the sequence (P62937 whole entry) above
Summary of the method: as §5

KRAS G13C = KRAS G13C (Homo sapiens (Human), UniProt P01116+P62937, G13C); experiment: Ras-Raf disruption/FRET/MOA assay, KRAS G13C; assay type: biochemical
Chain of KRAS G13C (P01116 other isoform, or with tags, fused parts or gaps G13C): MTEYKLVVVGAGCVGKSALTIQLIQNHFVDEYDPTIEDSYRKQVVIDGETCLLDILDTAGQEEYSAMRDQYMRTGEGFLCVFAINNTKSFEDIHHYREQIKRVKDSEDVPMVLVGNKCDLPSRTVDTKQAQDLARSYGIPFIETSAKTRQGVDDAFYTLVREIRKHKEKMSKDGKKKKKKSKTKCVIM
Chain of KRAS G13C (P62937 whole entry): as the sequence (P62937 whole entry) above
Summary of the method: as §5

KRAS G12V = KRAS G12V (Homo sapiens (Human), UniProt P01116+P62937, G12V); experiment: Ras-Raf disruption/FRET/MOA assay, KRAS G12V; assay type: biochemical
Chain of KRAS G12V (P01116 other isoform, or with tags, fused parts or gaps G12V): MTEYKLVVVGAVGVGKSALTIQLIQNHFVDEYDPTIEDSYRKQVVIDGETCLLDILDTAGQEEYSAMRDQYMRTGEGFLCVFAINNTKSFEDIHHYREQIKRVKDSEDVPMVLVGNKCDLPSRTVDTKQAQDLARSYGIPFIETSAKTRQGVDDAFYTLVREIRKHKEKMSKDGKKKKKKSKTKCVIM
Chain of KRAS G12V (P62937 whole entry): as the sequence (P62937 whole entry) above
Summary of the method: as §5

KRAS G12D = KRAS G12D (Homo sapiens (Human), UniProt P01116+P62937, G12D); experiment: Ras-Raf disruption/FRET/MOA assay, KRAS G12D; assay type: biochemical
Chain of KRAS G12D (P01116 other isoform, or with tags, fused parts or gaps G12D): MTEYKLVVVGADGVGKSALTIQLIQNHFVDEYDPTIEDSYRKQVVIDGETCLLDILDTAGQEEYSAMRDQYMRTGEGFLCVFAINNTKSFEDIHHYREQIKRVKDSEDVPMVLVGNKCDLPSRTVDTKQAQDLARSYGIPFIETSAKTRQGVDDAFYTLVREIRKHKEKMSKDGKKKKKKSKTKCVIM
Chain of KRAS G12D (P62937 whole entry): as the sequence (P62937 whole entry) above
Summary of the method: as §5

KRAS WT = KRAS WT (Homo sapiens (Human), UniProt P01116+P62937); experiment: Ras-Raf disruption/FRET/MOA assay, KRAS WT; assay type: biochemical
Chain of KRAS WT (P01116 other isoform, or with tags, fused parts or gaps): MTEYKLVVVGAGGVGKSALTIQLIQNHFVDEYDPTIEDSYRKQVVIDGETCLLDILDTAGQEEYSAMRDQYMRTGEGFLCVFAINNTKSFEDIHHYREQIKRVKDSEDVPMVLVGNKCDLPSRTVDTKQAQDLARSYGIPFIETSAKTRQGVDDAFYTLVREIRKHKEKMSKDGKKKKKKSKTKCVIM
Chain of KRAS WT (P62937 whole entry): as the sequence (P62937 whole entry) above
Summary of the method: as §5

KRAS G12C = KRAS G12C (Homo sapiens (Human), UniProt P01116+P62937, G12C); experiment: Ras-Raf disruption/FRET/MOA assay, KRAS G12C; assay type: biochemical
Chain of KRAS G12C (P01116-2 other isoform, or with tags, fused parts or gaps G12C): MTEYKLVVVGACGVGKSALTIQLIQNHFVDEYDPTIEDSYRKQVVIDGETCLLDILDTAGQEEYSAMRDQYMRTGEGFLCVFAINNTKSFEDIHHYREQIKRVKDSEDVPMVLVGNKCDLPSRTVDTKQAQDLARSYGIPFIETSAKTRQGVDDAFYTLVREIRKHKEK
Chain of KRAS G12C (P62937 whole entry): as the sequence (P62937 whole entry) above
Summary of the method: as §5

NRAS G12C = NRAS G12C (Homo sapiens (Human), UniProt P01111+P62937, G12C); experiment: Ras-Raf disruption/FRET/MOA assay, NRAS G12C; assay type: biochemical
Chain of NRAS G12C (P01111 whole entry G12C): as the sequence (P01111 whole entry G12C) above
Chain of NRAS G12C (P62937 whole entry): as the sequence (P62937 whole entry) above
Summary of the method: as §5

[5] = read-out: H358 Cell Viability IC50, K-Ras G12C, 5-day treatment
[6] = read-out: KRAS G12C FRET data IC50
[7] = read-out: NRAS G12C FRET data IC50

Chain of KRAS G13D binding to BRAF RBD (P01116 other isoform, or with tags, fused parts or gaps G13D): as the sequence (P01116 other isoform, or with tags, fused parts or gaps G13D) above
Chain of KRAS G13D binding to BRAF RBD (P62937 whole entry): as the sequence (P62937 whole entry) above

SMILES	pEC50 (AsPC-1 (K-Ras G12D) [3]; ASPC1, read-out: pERK EC50)	pIC50 (NCI-H358 (K-Ras G12C); [5])	pIC50 (AsPC-1 (K-Ras G12D) [4])	pIC50 (KRAS G13D)	pIC50 (KRAS G12S)	pIC50 (KRAS G13C)	pIC50 (KRAS G12V)	pIC50 (KRAS G12D)	pIC50 (KRAS WT)	pIC50 (KRAS G12C)	pIC50 (NRAS G12C)	also measured
CCn1c(-c2cccnc2[C@H](C)OC)c2c3cc(ccc31)-c1csc(n1)C[C@H](NC(=O)[C@H](C(C)C)N1CC[C@]3(CCN(C(=O)C#CC(C)(C)N(C)C)C3)C1=O)C(=O)N1CCC[C@H](N1)C(=O)OCC(C)(C)C2 (single isomer, unassigned) [Compound A425]												pIC50 [1]: < 5.00; pIC50 [2]: 7.00 to 8.00
CC#CC(=O)N1CC[C@]2(CCN([C@H](C(=O)N[C@H]3Cc4cccc(c4)-c4ccc5c(c4)c(c(-c4cccnc4[C@H](C)OC)n5CC)CC(C)(C)COC(=O)[C@@H]4CCCN(N4)C3=O)C(C)C)C2=O)C1 (single isomer, unassigned) [Compound A426]												pIC50 [1]: < 5.00; pIC50 [2]: 5.00 to 6.00
CCn1c(-c2cccnc2[C@H](C)OC)c2c3cc(ccc31)-c1cccc(c1)C[C@H](NC(=O)[C@H](C(C)C)N1CC[C@]3(CCN(C(=O)C#CC(C)(C)N(C)C)C3)C1=O)C(=O)N1CCC[C@H](N1)C(=O)OCC(C)(C)C2 [Compound A414]												pIC50 [1]: < 5.00
CCn1c(-c2cnccc2COC)c2c3cc(ccc31)-c1cc(O)cc(c1)C[C@H](NC(=O)[C@H](C(C)C)N(C)C(=O)CN(C)C(=O)[C@@H]1N[C@H]1c1ccccc1)C(=O)N1CCC[C@H](N1)C(=O)OCC(C)(C)C2 [Example 11]	> 5.30	6.00 to 7.00	5.00 to 6.00	6.00 to 7.00	7.00 to 8.00	7.00 to 8.00	7.00 to 8.00	5.00 to 6.00	6.00 to 7.00	7.00 to 8.00	7.00 to 8.00	
CCn1c(-c2cnccc2COC)c2c3cc(ccc31)-c1cc(O)cc(c1)C[C@H](NC(=O)[C@H](C(C)C)N(C)C(=O)CN(C)C(=O)[C@H]1N[C@@H]1c1ccccc1)C(=O)N1CCC[C@H](N1)C(=O)OCC(C)(C)C2 [Example 12]	> 5.30	6.00 to 7.00	6.00 to 7.00	7.00 to 8.00	7.00 to 8.00	7.00 to 8.00	7.00 to 8.00	6.00 to 7.00	7.00 to 8.00	7.00 to 8.00	7.00 to 8.00	
CCn1c(-c2cccnc2COC)c2c3cc(ccc31)-c1cc(O)cc(c1)C[C@H](NC(=O)[C@H](C(C)C)N(C)C(=O)CCNC(=O)NCCCl)C(=O)N1CCC[C@H](N1)C(=O)OCC(C)(C)C2 [Example 25, (2S)-2-(3-(3-(2-chloroethyl)ureido)-N-methylpropanamido)-N-((6^3S,4S)-1^1-ethyl-25-hydroxy-1^2-(2-(methoxymethyl)pyridin-3-yl)-10,10-dimethyl-5,7-dioxo-6^1,6^2,6^3,6^4,6^5,6^6-hexahydro-1^1H-8-oxa-1 (5,3)-indola-6 (1,3)-pyridazina-2 (1,3)-benzenacycloundecaphane-4-yl)-3-methylbutanamide]		< 5.00		5.00 to 6.00	< 5.00	5.00 to 6.00	5.00 to 6.00	< 5.00	5.00 to 6.00	5.00 to 6.00	< 5.00	
CCn1c(-c2cnccc2COC)c2c3cc(ccc31)-c1cc(O)cc(c1)C[C@H](NC(=O)[C@@H](CCNC1=NCCO1)C(C)C)C(=O)N1CCC[C@H](N1)C(=O)OCC(C)(C)C2 [Example 30]												pIC50 (NCI-H358 (K-Ras G12C); read-out: H358 Cell Viability IC50): 5.00 to 6.00; pIC50 (KRAS G13D; read-out: KRAS G13D FRET IC50): 5.00 to 6.00; pIC50 (KRAS G12S; read-out: KRAS G12S FRET IC50): < 5.00; pIC50 (KRAS G13C; read-out: KRAS G13C FRET IC50): < 5.00; pIC50 (KRAS G12V; read-out: KRAS G12V FRET IC50): 5.00 to 6.00; pIC50 (KRAS G12D; read-out: KRAS G12D FRET IC50): < 5.00; pIC50 (KRAS WT; read-out: KRAS WT FRET IC50): 5.00 to 6.00; pIC50 (KRAS G12C; [6]): 5.00 to 6.00; pIC50 (NRAS G12C; [7]): < 5.00
CCn1c(-c2cnccc2COC)c2c3cc(ccc31)-c1cc(O)cc(c1)C[C@H](NC(=O)[C@H](C(C)C)N(C)C(=O)CN(C)C(=O)[C@@H]1N[C@H]1c1ccc(OC)cc1)C(=O)N1CCC[C@H](N1)C(=O)OCC(C)(C)C2 [Example 96]	> 5.30	5.00 to 6.00	5.00 to 6.00	6.00 to 7.00	7.00 to 8.00	7.00 to 8.00	7.00 to 8.00	6.00 to 7.00	7.00 to 8.00	7.00 to 8.00	7.00 to 8.00	
CCn1c(-c2cnccc2COC)c2c3cc(ccc31)-c1cc(O)cc(c1)C[C@H](NC(=O)[C@H](C(C)C)N(C)C(=O)CN(C)C(=O)[C@@H]1N[C@@H]1C1CC1)C(=O)N1CCC[C@H](N1)C(=O)OCC(C)(C)C2 [Example 103]	> 5.30	6.00 to 7.00	6.00 to 7.00	6.00 to 7.00	7.00 to 8.00	7.00 to 8.00	7.00 to 8.00	7.00 to 8.00	7.00 to 8.00	7.00 to 8.00	7.00 to 8.00	
CCn1c(-c2cnccc2COC)c2c3cc(ccc31)-c1cc(O)cc(c1)C[C@H](NC(=O)[C@H](C(C)C)N(C)C(=O)CN(C)C(=O)[C@@H]1N[C@@H]1C)C(=O)N1CCC[C@H](N1)C(=O)OCC(C)(C)C2 [Example 105]	> 5.30		5.00 to 6.00	6.00 to 7.00	7.00 to 8.00	7.00 to 8.00	6.00 to 7.00	6.00 to 7.00	7.00 to 8.00	7.00 to 8.00	7.00 to 8.00	
CCn1c(-c2cccnc2[C@H](C)OC)c2c3cc(ccc31)-c1cc(O)cc(c1)C[C@H](NC(=O)[C@H](C(C)C)N1CC[C@@]3(CCC(C(=O)[C@@H]4N[C@@H]4C4CC4)C3)C1=O)C(=O)N1CCC[C@H](N1)C(=O)OCC(C)(C)C2 (stereo partly drawn) [Example 128]												pEC50 (AsPC-1 (K-Ras G12D) [3]; ASPC1, AsPC-1 KRAS G12D, read-out: pERK EC50): > 5.30; pIC50 (AsPC-1 (K-Ras G12D) [4]; K-Ras G12D, 5-day treatment): 5.00 to 6.00; pIC50 (KRAS G13D; read-out: KRAS G13D FRET IC50): 6.00 to 7.00; pIC50 (KRAS G12S; read-out: KRAS G12S FRET IC50): 6.00 to 7.00; pIC50 (KRAS G13C; read-out: KRAS G13C FRET IC50): 7.00 to 8.00; pIC50 (KRAS G12V; read-out: KRAS G12V FRET IC50): 6.00 to 7.00; pIC50 (KRAS G12D; read-out: KRAS G12D FRET IC50): 6.00 to 7.00; pIC50 (KRAS WT; read-out: KRAS WT FRET IC50): 6.00 to 7.00; pIC50 (KRAS G12C; [6]): 7.00 to 8.00; pIC50 (NRAS G12C; [7]): 7.00 to 8.00

— patent publication US20250195521A1 (Revolution Medicines, Inc., priority 2020, published 2025)
